Literature values as cited in PMC7473964, “Application of Pharmacokinetic-Pharmacodynamic Modeling to Inform Translation of In Vitro NaV1.7 Inhibition to In Vivo Pharmacological Response in Non-human Primate” (Pharmaceutical Research, 2020).

Test system: sense of smell (hyposmia) as biomarker of on-target NaV1.7 pharmacology
Parameters: method as in PMID 31172446
Settings: healthy volunteers, first-in-human study

O=C(NS(=O)(=O)N1CCC1)c1cc(C2CC2)c(OCC23CC4CC(CC(C4)C2)C3)cc1F [GDC-0276]
Hyposmia in clinical study: a couple of incidents of hyposmia were reported
